Test results published in article PMC9320521, “Detection of Unprecedented CYP74 Enzyme in Mammal: Hydroperoxide Lyase CYP74C44 of the Bat Sturnira hondurensis” (International Journal of Molecular Sciences, 2022).

What follows are compounds tested on CYP74C44 (ShHPL) (assay: UV absorbance decrease at […] nm). Conditions: Na phosphate buffer pH 7.0, 25 °C, 5 to 150 μM substrate.
Format: biochemical, Sturnira hondurensis

Point of comparison: `CC/C=C\C[C@@H](/C=C/C=C\C/C=C\C/C=C\CCCC(=O)O)OO` [15-HPEPE], Km 8.17 ± 1.6 µM. Against it:
- CCCCC[C@@H](/C=C/C=C\CCCCCCCC(=O)O)OO [13-HPOD, (9Z,11E,13S)-13-hydroperoxy-9,11-octadecadienoic] — 7.1-fold higher, 57.9 ± 13.3 µM
- CCCCC/C=C\C=C\[C@H](CCCCCCCC(=O)O)OO [9-HPOD, (9S,10E,12Z)-9-Hydroperoxy-10,12-octadecadienoic] — 5.7-fold higher, 46.6 ± 7.2 µM
- CC/C=C\C[C@@H](/C=C/C=C\CCCCCCCC(=O)O)OO [13-HPOT, (9Z,11E,13S,15Z)-13-hydroperoxy-9,11,15-octadecatrienoic] — 3.5-fold higher, 28.4 ± 6.7 µM
- CC/C=C\C/C=C\C=C\[C@H](CCCCCCCC(=O)O)OO [9-HPOT, (9S,10E,12Z,15Z)-9-hydroperoxy-10,12,15-octadecatrienoic] — 2.6-fold higher, 20.9 ± 5.6 µM
